Reference: patent publication US9404082B2, “Method for production of eosinophil from pluripotent stem cell” (KYOTO UNIVERSITY, priority 2010, dated 2016)

test system: ES cell (H1)-derived eosinophils; assay: Measurement of migratory capacity (Transwell); type: cell-based, human; details: 1640 medium with 5% FBS, 1 to 2 hours, IL-5 0.2-25 ng/ml, Eotaxin 0.4-250 nM, fMLP 10 pM-100 nM, FIG. 3
Procedure: Eosinophils established from ES cells (H1) by the above method were transferred to Transwell, and 1640 medium supplemented with 5% FBS was added thereto. IL-5 (0.2 ng/ml to 25 ng/ml), Eotaxin (0.4 nM to 250 nM) and fMLP (10 pM to 100 nM) at various concentrations were added thereto, and culture was performed for 1 to 2 hours. Thereafter, the number of cells migrated from the top layer to the bottom layer was measured (FIG. 3).

Substance	number of cells migrated from the top layer to the bottom layer
IL-5: cytokine used to stimulate eosinophil migration	migrate in response to the respective types of stimulation
fMLP	migrate in response to the respective types of stimulation
Eotaxin: cytokine used to stimulate eosinophil migration	migrate in response to the respective types of stimulation
